Assay results reported in DBAASP.
≈ marks a conversion by molar mass, not a printed value.

Assays:
Experiment in all cases: ≥ marks a high value that may be exact or a test limit, other limits are often not marked, values filed in µg/mL are converted to µM
[1] = tested on: Candida albicans NCYC 1467
[2] = tested on: Escherichia coli NCTC 10418
[3] = tested on: Pseudomonas aeruginosa ATCC 27853
[4] = tested on: Staphylococcus aureus ATCC 43300
[5] = tested on: Staphylococcus aureus NCTC 10788
[6] = tested on: Staphylococcus aureus NCTC 12493
[7] = tested on: Staphylococcus aureus ATCC BAA-1556
[8] = tested on: Escherichia coli JW0013
[9] = tested on: Bacillus subtilis 168
[10] = tested on: Candida albicans F7-39/IDE99
[11] = tested on: Escherichia coli B
[12] = tested on: Micrococcus luteus CCM 144
[13] = tested on: Pseudomonas aeruginosa
[14] = tested on: Staphylococcus aureus
[15] = tested on: Bacillus cereus ATCC 11778
[16] = tested on: Escherichia coli ATCC 35218
[17] = tested on: Pseudomonas aeruginosa ATCC 9027
[18] = tested on: Staphylococcus aureus ATCC 25923
[19] = tested on: Bacillus subtilis CMCC 63501
[20] = tested on: Escherichia coli UB1005
[21] = tested on: Salmonella enterica subsp. enterica serovar Pullorum C79-13
[22] = tested on: Salmonella enterica subsp. enterica serovar Typhimurium ATCC 14028
[23] = tested on: Staphylococcus epidermidis ATCC 12228

CSCC[C@H](NC(=O)[C@H](CC(=O)O)NC(=O)[C@@H](NC(=O)[C@@H](NC(=O)[C@H](C)NC(=O)[C@H](CC(N)=O)NC(=O)[C@H](CC(C)C)NC(=O)[C@H](C)NC(=O)[C@H](C)NC(=O)[C@H](CCCCN)NC(=O)CNC(=O)[C@H](C)NC(=O)[C@H](C)NC(=O)[C@H](CCCCN)NC(=O)CNC(=O)[C@@H](NC(=O)[C@H](CC(N)=O)NC(=O)[C@H](CCCCN)NC(=O)[C@H](Cc1ccccc1)NC(=O)[C@H](CC(C)C)NC(=O)[C@H](CO)NC(=O)[C@H](CCCCN)NC(=O)[C@H](Cc1c[nH]c2ccccc12)NC(=O)[C@H](CC(C)C)NC(=O)CN)C(C)C)C(C)C)[C@@H](C)O)C(=O)N[C@H](C(=O)N[C@@H](CC(N)=O)C(=O)N[C@@H](CCC(N)=O)C(N)=O)C(C)C [GLWKSLFKNVGKAAGKAALNAVTDMVNQ]
MIC [1]: 10.9 µM (≈ 32 µg/mL)
MIC [2]: 5.46 µM (≈ 16 µg/mL)
MIC [3]: 21.8 µM (≈ 64 µg/mL)
MIC [4]: 10.9 µM (≈ 32 µg/mL)
MIC [5]: 5.46 µM (≈ 16 µg/mL)
MIC [6]: 21.8 µM (≈ 64 µg/mL)

CC(C)C[C@H](NC(=O)[C@H](CC(C)C)NC(=O)[C@H](CC(C)C)NC(=O)[C@H](CC(C)C)NC(=O)[C@H](CC(C)C)NC(=O)[C@H](CC(C)C)NC(=O)[C@H](CC(C)C)NC(=O)[C@@H](N)CCCCN)C(=O)N[C@@H](CCCCN)C(N)=O [KLLLLLLLK]
MIC [7]: ≥ 100 µM

CC[C@H](C)[C@H](NC(=O)[C@H](CCCN=C(N)N)NC(=O)[C@@H](N)CCCCN)C(=O)N[C@@H](CCCN=C(N)N)C(=O)N1CCC[C@H]1C(=O)N[C@@H](CCCN=C(N)N)C(=O)N1CCC[C@H]1C(=O)N1CCC[C@H]1C(=O)N[C@@H](CCCN=C(N)N)C(=O)N[C@@H](CC(C)C)C(=O)N1CCC[C@H]1C(=O)N[C@@H](CCCN=C(N)N)C(=O)N1CCC[C@H]1C(=O)N[C@@H](CCCN=C(N)N)C(=O)N1CCC[C@H]1C(=O)N[C@@H](CCCN=C(N)N)C(=O)O [KRIRPRPPRLPRPRPR]
MIC [8]: 0.3 µM (≈ 0.615 µg/mL)

CC(C)C[C@H](NC(=O)[C@H](CC(C)C)NC(=O)[C@H](CC(C)C)NC(=O)[C@H](CCCCN)NC(=O)[C@H](CC(C)C)NC(=O)[C@H](CC(C)C)NC(=O)[C@H](CC(C)C)NC(=O)[C@H](CCCCN)NC(=O)[C@@H](N)CC(C)C)C(N)=O [LKLLLKLLL]
MIC [7]: ≥ 100 µM

CC[C@H](C)[C@H](NC(=O)[C@H](C)NC(=O)CNC(=O)[C@H](Cc1c[nH]c2ccccc12)NC(=O)[C@H](CCCCN)NC(=O)[C@@H](N)CC(C)C)C(=O)N[C@@H](CC(C)C)C(=O)N[C@@H](CCCCN)C(=O)N[C@@H](Cc1cnc[nH]1)C(=O)N[C@H](C(=O)N[C@H](C(=O)N[C@@H](CCCCN)C(N)=O)[C@@H](C)CC)[C@@H](C)CC [LKWGAILKHIIK]
MIC [9]: 3.7 µM (≈ 5.25 µg/mL)
MIC [10]: 5.1 µM (≈ 7.24 µg/mL)
MIC [11]: 3.7 µM (≈ 5.25 µg/mL)
MIC [12]: 3.7 µM (≈ 5.25 µg/mL)
MIC [13]: 46.7 µM (≈ 66.3 µg/mL)
MIC [14]: 11.7 µM (≈ 16.6 µg/mL)

CC(C)C[C@H](NC(=O)[C@H](CCCCN)NC(=O)[C@H](CC(C)C)NC(=O)[C@H](CC(C)C)NC(=O)[C@H](CC(C)C)NC(=O)[C@H](CC(C)C)NC(=O)[C@H](CC(C)C)NC(=O)[C@@H](N)CC(C)C)C(=O)N[C@@H](CCCCN)C(N)=O [LLLLLLKLK]
MIC [7]: ≥ 100 µM

CC(C)C[C@H](NC(=O)[C@H](C)NC(=O)[C@H](C)NC(=O)CNC(=O)[C@H](Cc1c[nH]c2ccccc12)NC(=O)[C@H](CC(N)=O)NC(=O)[C@@H](N)CC(C)C)C(=O)N[C@@H](CCCCN)C(=O)N[C@@H](Cc1cnc[nH]1)C(=O)N[C@@H](C)C(=O)N[C@@H](C)C(=O)N[C@@H](CCCCN)C(N)=O [LNWGAALKHAAK]
MIC [9]: ≥ 100 µM
MIC [10]: ≥ 100 µM
MIC [11]: ≥ 100 µM
MIC [12]: ≥ 100 µM
MIC [13]: > 100 µM
MIC [14]: > 100 µM

CC(C)C[C@H](NC(=O)[C@H](CC(C)C)NC(=O)[C@@H](N)[C@@H](C)O)C(=O)N[C@@H](CCCCN)C(=O)N[C@@H](CCCCN)C(=O)N[C@H](C(=O)N[C@@H](CC(C)C)C(=O)N[C@@H](CCCCN)C(=O)N[C@@H](C)C(=O)N[C@@H](C)C(=O)N[C@@H](C)C(N)=O)C(C)C [TLLKKVLKAAA]
MIC [15]: ≥ 50 µM
MIC [16]: ≥ 50 µM
MIC [17]: > 50 µM
MIC [18]: > 50 µM

CC[C@H](C)[C@H](NC(=O)[C@@H]1CCCN1C(=O)[C@H](CCCCN)NC(=O)[C@@H]1CCCN1C(=O)[C@@H]1CCCN1C(=O)[C@@H](NC(=O)[C@@H]1CCCN1C(=O)[C@H](CCCN=C(N)N)NC(=O)[C@@H]1CCCN1C(=O)[C@H](CC(C)C)NC(=O)[C@H](Cc1ccc(O)cc1)NC(=O)[C@H](CO)NC(=O)CNC(=O)[C@H](CCCCN)NC(=O)[C@H](CC(=O)O)NC(=O)[C@@H](N)C(C)C)[C@@H](C)O)C(=O)N[C@@H](Cc1ccc(O)cc1)C(=O)N[C@@H](CC(N)=O)C(=O)N[C@@H](CCCN=C(N)N)C(=O)N[C@@H](CC(N)=O)C(=O)O [VDKGSYLPRPTPPKPIYNRN]
MIC [8]: 0.3 µM (≈ 0.694 µg/mL)

CC[C@H](C)[C@H](NC(=O)[C@@H]1CCCN1C(=O)[C@H](CCCN=C(N)N)NC(=O)[C@@H]1CCCN1C(=O)[C@@H]1CCCN1C(=O)[C@@H](NC(=O)[C@@H]1CCCN1C(=O)[C@H](CCCN=C(N)N)NC(=O)[C@@H]1CCCN1C(=O)[C@H](CCCN=C(N)N)NC(=O)[C@H](Cc1ccc(O)cc1)NC(=O)[C@H](CO)NC(=O)CNC(=O)[C@H](CCCCN)NC(=O)[C@H](CC(=O)O)NC(=O)[C@@H](N)C(C)C)[C@@H](C)O)C(=O)N[C@@H](Cc1ccc(O)cc1)C(=O)N[C@@H](CC(N)=O)C(=O)N[C@@H](CCCN=C(N)N)C(=O)N[C@@H](CC(N)=O)C(=O)O [VDKGSYRPRPTPPRPIYNRN]
MIC [8]: 0.3 µM (≈ 0.715 µg/mL)

CC[C@H](C)[C@H](NC(=O)[C@H](CCCN=C(N)N)NC(=O)[C@H](CCCN=C(N)N)NC(=O)[C@@H]1CCCN1C(=O)[C@@H]1CCCN1C(=O)[C@H](CCCN=C(N)N)NC(=O)[C@@H]1CCCN1C(=O)[C@H](CCSC)NC(=O)[C@@H]1CCCN1C(=O)[C@H](CC(C)C)NC(=O)[C@H](Cc1ccc(O)cc1)NC(=O)[C@@H]1CCCN1C(=O)[C@@H]1CCCN1C(=O)[C@H](CCCCN)NC(=O)[C@H](CC(=O)O)NC(=O)[C@@H](N)C(C)C)C(=O)N[C@@H](Cc1ccc(O)cc1)C(=O)N[C@@H](CC(N)=O)C(=O)N[C@@H](CCCN=C(N)N)C(N)=O [VDKPPYLPMPRPPRRIYNR]
MIC [8]: 2.03 µM (≈ 4.8 µg/mL)

CC[C@H](C)[C@H](NC(=O)[C@H](CCCN=C(N)N)NC(=O)[C@H](CCCN=C(N)N)NC(=O)[C@@H]1CCCN1C(=O)[C@@H]1CCCN1C(=O)[C@H](CCCN=C(N)N)NC(=O)[C@H](CCCN=C(N)N)NC(=O)[C@H](CCCN=C(N)N)NC(=O)[C@@H]1CCCN1C(=O)[C@H](CC(C)C)NC(=O)[C@H](CCCN=C(N)N)NC(=O)[C@@H]1CCCN1C(=O)[C@H](CCCN=C(N)N)NC(=O)[C@H](CCCCN)NC(=O)[C@H](CC(=O)O)NC(=O)[C@@H](N)C(C)C)C(=O)N[C@@H](Cc1ccc(O)cc1)C(=O)N[C@@H](CC(N)=O)C(=O)N[C@@H](CCCN=C(N)N)C(N)=O [VDKRPRLPRRRPPRRIYNR]
MIC [8]: 0.959 µM (≈ 2.4 µg/mL)

CC(C)C[C@H](NC(=O)[C@H](CC(C)C)NC(=O)[C@H](CCCCN)NC(=O)[C@H](CC(C)C)NC(=O)[C@H](CC(C)C)NC(=O)[C@@H](N)Cc1c[nH]c2ccccc12)C(N)=O [WLLKLL]
MIC [7]: ≥ 100 µM

CC(=O)N[C@@H](Cc1c[nH]c2ccccc12)C(=O)N[C@@H](CCCN=C(N)N)C(=O)N[C@@H](CCCCN)C(=O)N[C@@H](CC(C)C)C(=O)N[C@@H](Cc1c[nH]c2ccccc12)C(=O)N[C@@H](CCCN=C(N)N)C(=O)NCC(=O)NCC(=O)N[C@@H](CC(C)C)C(=O)N[C@@H](CCCCN)C(=O)N[C@@H](CCCN=C(N)N)C(=O)N[C@@H](Cc1c[nH]c2ccccc12)C(=O)N[C@@H](CC(C)C)C(=O)N[C@@H](CCCCN)C(N)=O [WRKLWRGGLKRWLK]
MIC [19]: 8 µM (≈ 15.4 µg/mL)
MIC [20]: 4 µM (≈ 7.7 µg/mL)
MIC [3]: 8 µM (≈ 15.4 µg/mL)
MIC [21]: 2 µM (≈ 3.85 µg/mL)
MIC [22]: 8 µM (≈ 15.4 µg/mL)
MIC [18]: 8 µM (≈ 15.4 µg/mL)
MIC [4]: 4 µM (≈ 7.7 µg/mL)
MIC [23]: 16 µM (≈ 30.8 µg/mL)

CC(C)C[C@H](NC(=O)[C@H](Cc1c[nH]c2ccccc12)NC(=O)[C@H](Cc1c[nH]c2ccccc12)NC(=O)[C@H](CC(C)C)NC(=O)[C@H](CCCN=C(N)N)NC(=O)[C@H](Cc1c[nH]c2ccccc12)NC(=O)[C@H](CC(C)C)NC(=O)[C@H](Cc1c[nH]c2ccccc12)NC(=O)[C@@H](N)Cc1c[nH]c2ccccc12)C(N)=O [WWLWRLWWL]
MIC [7]: 3.12 µM (≈ 4.51 µg/mL)
